In patent US5686607A, “Pyridyl ethylation of lactam derivatives” (Merck & Co., Inc., priority 1996, dated 1997):

System: ADP-stimulated platelets
Test: ADP-stimulated platelet aggregation assay (gel-filtered human platelets)
Type: cell-based
Details: ADP-stimulated gel-filtered human platelets (2×10^8 per ml), fibrinogen 100 ug/ml, Ca^2+ 1 mM, 10 mM ADP, 37° C., read-out: IC50 (inhibition of aggregation by 50% relative to a control)
Text: The activity of these fibrinogen receptor antagonists is illustrated below. One test used to evaluate fibrinogen receptor antagonist activity is based on evaluation of inhibition of ADP-stimulated platelets. Aggregation requires that fibrinogen bind to and occupy the platelet fibrinogen receptor site. Inhibitors of fibrinogen binding inhibit aggregation. In the ADP-stimulated platelet aggregation assay used to determine inhibition associated with these fibrinogen receptor antagonists, human platelets are isolated from fresh blood, collected into acid citrate/dextrose by differential centrifugation followed by gel filtration on Sepharose 2B in divalent ion-free Tyrode's buffer (pH 7.4) containing 2% bovine serum albumin.
Platelet aggregation is measured at 37° C. in a Chronolog aggregometer. The reaction mixture contains gel-filtered human platelets (2×10^8 per ml), fibrinogen (100 micrograms per ml (ug/ml)), Ca^2+ (1 mM), and the fibrinogen receptor antagonists tested. The aggregation is initiated by adding 10 mM ADP 1 minute after the other components are added. The reaction is then allowed to proceed for at least 2 minutes. The extent of inhibition of aggregation is expressed as the percentage of the rate of aggregation observed in the absence of inhibitor. The IC50 is the dose of a particular compound inhibiting aggregation by 50% relative to a control lacking the compound. […]

Compound `C[C@H](CC(=O)O)NC(=O)CN1CCCC(CCC2CCNCC2)C1=O` (stereo partly shown) has an IC50 of 100 µM.
